Data: US5550139A, “Serine protease inhibitors” (The Wichita State University, priority 1994, dated 1996)
Where “and” joins values, the source holds several entries; their conditions need not be identical. Equal entries are not always repeated.

Experiments:
[1] = tested on: peripheral blood neutrophils and lymphocytes; experiment: Peripheral blood cell distribution after administration to rats without inflammation; type: in vivo; details: rat, 8 mg/kg twice daily for three days, no inflammation
Experimental: Compound A or Compound B were each administered twice daily for three days at a dose of 8 mg/kg. Inflammation was not induced in these rats. […] However, substitution of the aspirin moiety with a fluorine atom, as found in Compound B, prevents an increase in neutrophil cell number.

neutrophil elastase = experiment: Elastase activity and cell number in peripheral blood neutrophils after administration to rats; type: in vivo; details: rat, 8 mg/kg twice daily i.v. for three days
Experimental: (§1) Inhibitor A or B were each injected twice daily into the tail vein of a rat (8 mg/kg) over a period of three days. Inflammation was not induced in these rats. […] WBC=white blood cells; PMN=polymorphonuclear leukocytes; The elastase assay has been disclosed above.

rat = experiment: Overt toxicity in injected rats; type: in vivo; details: rat, 8 mg/kg twice daily i.v. for three days
Experimental: as §1
(§2) Each compound (A-D) was individually injected into the tail vein of a rat in a single dose (8 mg/kg). After injection, peritonitis was induced in the rat by an IP (intraperitoneal) injection of 1 ml of a 0.1% soluble starch solution. After 4 hours, the peritoneal cavity was lavaged with saline in order to determine the number and type of cells responding to peritonitis. Cell numbers were determined by a Coulter counter and cell type (e.g. lymphocytes, neutrophils, macrophages and monocytes) by standard Cytospin and Giemsa staining. Cell number and type was evaluated after IP injection of saline (negative control, no inflammation), starch (positive control, inflammation) or starch with IV injection of an inhibitor (experimental, inflammation). Inhibitors were dissolved in DMSO prior to administration.

[2] = tested on: neutrophil diapedesis (peritonitis); experiment: Inhibition of neutrophil diapedesis after experimentally induced (starch) peritonitis; type: in vivo, rat; details: for Abdominal Lavage Cell Distribution, Lymphocytes / Abdominal Lavage Cell Distribution, Macrophages Monocytes / Abdominal Lavage Cell Distribution, Neutrophils: 4 hours
Experimental: as §2

[3] = peripheral blood neutrophils, per animal, 8 mg/kg
[4] = Experiment 1, starch, 8 mg/kg i.v. single dose
[5] = Experiment 2, saline (no inflammation) + drug
[6] = Experiment 2, starch, 8 mg/kg i.v. single dose

O=C1c2ccccc2S(=O)(=O)N1CF [Drug B]
Peripheral Blood Cell Distribution, Lymphocytes ([1]; per animal, 8 mg/kg): 63% and 79%
Peripheral Blood Cell Distribution, Neutrophils ([1]; per animal, 8 mg/kg): 37% and 21%
effect on number of neutrophils in peripheral circulation (in words) ([1]; vs vehicle): did not cause an increase in neutrophil number
Elastase Activity (neutrophil elastase; [3]): 0.125 ΔOD/min/ml and 0.05 ΔOD/min/ml
Elastase Activity Rate/10^6 PMN (neutrophil elastase; [3]): 0.0154 and 0.0159
entry into neutrophils in vivo (in words) (neutrophil elastase): do not enter neutrophils in vivo
inactivation of neutrophil intracellular proteinase (in words) (neutrophil elastase): fails to inactivate neutrophil intracellular proteinase
PMN (neutrophil elastase; per animal, 8 mg/kg): 8.14 × 10^6 and 3.15 × 10^6
Total WBC (neutrophil elastase; per animal, 8 mg/kg): 22.0 × 10^6 and 15.0 × 10^6
effect on elastase activity in circulating neutrophils (in words) (neutrophil elastase; vs vehicle): did not reduce elastase activity in circulating neutrophils
overt signs of toxicity (rat): no overt signs of toxicity
Total Number of Cells Lavaged at 4 Hours, Lymphocytes [2, 4]: 8.1 × 10^6
Total Number of Cells Lavaged at 4 Hours, Macrophages Monocytes [2, 4]: 7.8 × 10^6
Total Number of Cells Lavaged at 4 Hours, Neutrophils [2, 4]: 10.1 × 10^6
Total Number of Cells Lavaged at 4 Hours, Total Cells [2, 4]: 26 × 10^6
Abdominal Lavage Cell Distribution, Lymphocytes [2, 4]: 31%
Abdominal Lavage Cell Distribution, Macrophages Monocytes [2, 4]: 30%
Abdominal Lavage Cell Distribution, Neutrophils [2, 4]: 39%
Total Number of Cells Lavaged at 4 Hours, Lymphocytes [2, 5]: 2.6 × 10^6
Total Number of Cells Lavaged at 4 Hours, Macrophages Monocytes [2, 5]: 14.5 × 10^6
Total Number of Cells Lavaged at 4 Hours, Neutrophils [2, 5]: 4.8 × 10^6
Total Number of Cells Lavaged at 4 Hours, Total Cells [2, 5]: 22 × 10^6
Abdominal Lavage Cell Distribution, Lymphocytes [2, 5]: 12%
Abdominal Lavage Cell Distribution, Macrophages Monocytes [2, 5]: 66%
Abdominal Lavage Cell Distribution, Neutrophils [2, 5]: 22%
Total Number of Cells Lavaged at 4 Hours, Lymphocytes [2, 6]: 9.9 × 10^6
Total Number of Cells Lavaged at 4 Hours, Macrophages Monocytes [2, 6]: 9.6 × 10^6
Total Number of Cells Lavaged at 4 Hours, Neutrophils [2, 6]: 12.5 × 10^6
Total Number of Cells Lavaged at 4 Hours, Total Cells [2, 6]: 32 × 10^6
Abdominal Lavage Cell Distribution, Lymphocytes [2, 6]: 31%
Abdominal Lavage Cell Distribution, Macrophages Monocytes [2, 6]: 30%
Abdominal Lavage Cell Distribution, Neutrophils [2, 6]: 39%
reduction of peritonitis induced neutrophil diapedesis ([2]; rat, 8 mg/kg i.v. single dose): more than 50%
